# Source: patent US5132414A, “Dideoxynucleoside-5'-phosphonoformic acid compounds” (Dana-Farber Cancer Institute, Inc., priority 1990, dated 1992)
# How the values were obtained:
# [1] = tested on: Rauscher murine leukemia virus (RLV); assay: Plaque assay: inhibition of plaque formation by Rauscher murine leukemia virus in mouse fibroblast cultures; format: cell-based; settings: for inhibition of plaque formation: added 4 hours before virus, 4 days
# Text: FIG. 4A is a graph showing inhibition of plaque formation by a different retrovirus (a murine leukemia virus) in mouse fibroblast cultures;
# (§1) For biological testing, a stock solution of the free acid of Example 1 was made up in DMSO and dispensed into RPMI 1640 cell growth medium to give the desired range of concentrations. The final DMSO concentration in the medium was <0.1%. These solutions in cell growth medium were used in all of the biological tests described below.
# The compound of Example 1 as well as AZT and PFA were also tested in a plaque assay for the ability to inhibit plaque formation in mouse fibroblast cultures by Rauscher murine leukemia virus (RLV), a type C retrovirus; the results are shown in FIG. 4A. Drugs were added to the cultures 4 hours before the virus, and inhibition was measured at 4 days. The cytotoxicity of all the agents to non-infected fibroblasts was also determined and found to be <50% at concentrations of up to 10^-5 M as shown in FIG. 4B. […] When AZT alone was used at a concentration of only 10^-9 M there was no effect, but when AZT and PFA were combined, each at concentrations of 10^-9 M, there was almost 50% inhibition of plaque formation even though the PFA was not used in excess.
# HIV-1 [2] = assay: Inhibition of HIV-1 replication in Jurkat cells (RT activity), drugs added 4 h before virus (prophylaxis model); format: cell-based; settings: for IC95: 96 h, read-out: concentration needed to achieve the same degree of inhibition (>95% inhibition of RT activity); for IC50: read-out: 50% inhibitory concentration (IC50), RT activity in culture supernatants
# Protocol: The final DMSO concentration in the medium was <0.1%. These solutions in cell growth medium were used in all of the biological tests described below.
# In a second evaluation, the compound salt of Example 1, AZT, and PFA were compared as inhibitors of HIV-1 replication in Jurkat cells when added to the cultures 4 h before the virus (i.e., in a prophylaxis model). The drugs were present through the length of the experiment (4 days).
# [3] = Inhibition of Jurkat cell growth; format: cell-based, human; settings: human; at 10^-5 M; Jurkat cells; read-out: growth inhibition of host cells
# Text: (§2) FIG. 2B is a graph showing inhibition of Jurkat cell growth under the same conditions as in FIG. 2A;
# as §1
# (§3) In a second evaluation, the compound salt of Example 1, AZT, and PFA were compared as inhibitors of HIV-1 replication in Jurkat cells when added to the cultures 4 h before the virus (i.e., in a prophylaxis model). The drugs were present through the length of the experiment (4 days). […] Thus, while there was an approximately four-log TI for AZT in this experiment, the TI for the compound of Example 1 could not actually be estimated because the IC50 for cell growth inhibition, extrapolated from the dose-response curve, was >10^-3 M.
# [4] = tested on: monkey peripheral blood leukocytes (M-PBLs); assay: Growth inhibition / toxicity to monkey peripheral blood leukocytes; format: cell-based; settings: in words
# Text: (§4) FIG. 6A is a graph showing results of a test similar to that of FIG. 5A except that monkey peripheral blood leukocytes were used; and
# (§5) FIG. 6B is a graph showing inhibition by one embodiment of the invention under the same conditions as in FIG. 5B.
# as §1
# (§6) The activities of AZT and of the compound of Example 1 against simian immunodeficiency virus (SIV) in cultured human lymphoblasts (CEM cells) were assayed; the results are shown in FIGS. 5A and 5B, respectively. The drugs were added to the culture 4 hours before the virus and inhibition was measured at 3 days.
# HIV-1 [5] = assay: Inhibition of HIV-1 replication in cultured human peripheral blood leukocytes; format: cell-based; settings: Human immunodeficiency virus 1, Leukocyte; H-PBLs; added 4 hours before virus, measured at 4 days; read-out: 50% inhibition of viral replication
# Text: FIG. 3A is a graph showing inhibition of HIV-1 replication in human peripheral blood leukocytes;
# as §1
# (§7) The activities of the compound of Example 1, AZT, and PFA were also examined in cultured human peripheral blood leukocytes (H-PBLs) infected with HIV-1. […] In both PBLs and Jurkat cells, therefore, the antiviral potency of the compound of Example 1 resembled that of AZT, while its low cytotoxicity was more reminiscent of that of PFA.
# [6] = tested on: simian immunodeficiency virus (SIV); assay: Inhibition of SIV in cultured human lymphoblasts (CEM cells), RT activity; format: cell-based; settings: CCRF-CEM, added 4 hours before virus, measured at 3 days, read-out: approximate IC50 for inhibition of RT activity in SIV-infected CEM cells
# Text: (§8) FIG. 5A is a graph showing inhibition by AZT of retroviral propagation and of cell growth in cultured human lymphoblasts infected with simian immuno-deficiency virus;
# (§9) FIG. 5B is a graph showing the results of using one embodiment of the invention in the same test as that of FIG. 5A.
# as §1, §6
# [7] = tested on: simian immunodeficiency virus (SIV); assay: Inhibition of SIV replication in monkey peripheral blood leukocytes (RT activity); format: cell-based
# Text: as §4, §5, §1, §6
# CEM cells = assay: Inhibition of CEM cell growth; format: cell-based, human; settings: for IC50: Homo sapiens, CCRF-CEM, 72 h, read-out: approximate IC50 for CEM cell growth
# Text: as §8, §9, §1, §6
# [8] = Inhibition of growth of human peripheral blood leukocytes; format: cell-based; settings: at 10^-4 M, H-PBLs, read-out: inhibition of PBL growth
# Text: FIG. 3B is a graph showing inhibition of growth of human peripheral blood leukocytes;
# as §1, §7
# HIV-1 RT = molecular target: T1, HIV-1 RT (Human immunodeficiency virus type 1 group M subtype B, UniProt P04585); assay: Cell-free assay with purified HIV-1 RT; format: biochemical
# T1 construct: purified HIV-1 RT
# Text: as §1
# To examine the question whether RT inhibition by the compound of Example 1 could by itself account for the antiretroviral effect in intact cells, the effect of the compound on RT activity was examined in a cell-free assay with purified HIV-1 RT. An IC50 value (ca. 50 μM) well in excess of the concentration needed to block viral replication was obtained. Therefore, it appears that metabolism is required in the action of the compound of Example 1 or that the compound has one or more targets other than RT in the cell.
# [9] = Cytotoxicity in non-infected Jurkat cells, 4 days exposure; format: cell-based; settings: human, up to 10^-4 M, read-out: decrease in cell viability
# Protocol: as §1
# (§10) The compound of Example 1 was tested initially for its ability to inhibit HIV-1 replication in Jurkat cells, a CD4+ human T-lymphocyte line commonly used for this purpose. Reverse transcriptase (RT) activity in the supernatant from the infected cells was used as a measure of viral replication, and the compound was added to the cultures at time zero or 4 h post-infection. Parallel cytotoxicity assays were performed in non-infected Jurkat cells to assess therapeutic selectivity.
# Jurkat cells = assay: Inhibition of Jurkat cell growth; format: cell-based, human; settings: Homo sapiens, Jurkat, read-out: IC50 for cell growth inhibition
# Text: as §2, §1, §3
# HIV-1 [10] = assay: Inhibition of HIV-1 replication in Jurkat cells (RT activity in supernatant), compound added at time zero or 4 h post-infection; format: cell-based; settings: Human immunodeficiency virus 1, compound added at time zero or 4 h post-infection, read-out: 50% inhibition of RT activity relative to non-treated HIV-infected cells
# Protocol: as §1, §10
# [11] = Human immunodeficiency virus 1, Jurkat
Structure (SMILES),IC95 (HIV-1 [2]; [11]) [µM],IC50 (HIV-1 [2]; [11]) [µM],"inhibition at 96 h, 10 µM [3] [%]",inhibition of plaque formation ([1]; at 10^-7 M),IC50 (HIV-1 [5]) [µM],IC50 [6] [µM],IC50 (CEM cells) [µM],inhibition at 100 µM [8] [%],also measured
"O=C(O)P(=O)(O)O [PFA, phosphonoformic acid]",1000,10,30,–,–,–,–,–,inhibition of plaque formation ([1]; until the concentration reached 10^-4 M): no appreciable effect
"Cc1cn([C@H]2C[C@H](N=[N+]=[N-])[C@@H](CO)O2)c(=O)[nH]c1=O [AZT, 3'-azidothymidine, reference compound]",100,0.01,50 to 60,Complete inhibition,~0.01,~0.005,~2,80,concentrations required for inhibition of cell growth in M-PBLs (versus CEM cells) [4]: required higher AZT concentrations; inhibition of plaque formation ([1]; at 10^-9 M): no effect; concentrations required for inhibition of SIV replication in M-PBLs (versus CEM cells) ([7]; in words): required higher AZT concentrations
"CCOC(=O)P(=O)(O)OC[C@H]1O[C@@H](n2cc(C)c(=O)[nH]c2=O)C[C@@H]1N=[N+]=[N-] [Example 1, 3'-Azido-3'-deoxy-5'-[P-(ethoxycarbonyl)-P-Hydroxyphosphinyl]thymidine]",–,~0.002,20,inactive,~0.01,~0.01,> 100,20,"toxicity to the host cell relative to AZT [4]: considerably lower than with AZT; inhibition of plaque formation ([1]; at 10^-5 M): almost complete inhibition; effectiveness in the RLV system relative to AZT or a 1:1 combination of AZT and PFA ([1]; comparison in words): less effective than AZT or a 1:1 combination of AZT and PFA; IC50 (HIV-1 RT): ~50 µM; cytotoxicity at 96 h, 100 µM [9]: < 10%; inhibition at 0.005 µM (HIV-1 [2]; Human immunodeficiency virus 1, Jurkat, read-out: inhibition of RT activity): > 95%; increase in potency relative to AZT (HIV-1 [2]; Jurkat cells, HIV-1, IC50 comparison with AZT): roughly fivefold; IC50 (Jurkat cells): > 1000 µM; IC50 (HIV-1 [10]): ~0.5 µM; IC50 ([7]; Simian immunodeficiency virus, Leukocyte, in Primates, M-PBLs, added 4 hours before virus, read-out: 50% inhibition of RT activity (SIV replication)): 0.1 µM; times less toxic to the host cells than AZT (CEM cells; CEM cells, relative to AZT): at least 200 times"
